Results from patent US20230365546A1, “5-SUBSTITUTED INDOLE 3-AMIDE DERIVATIVES, PREPARATION METHOD AND USE THEREOF” (ORIGIANT PHARMACEUTICAL CO., LTD, priority 2020, published 2023).
Values belong to the compound of their own block, whether it stands above or below them.

Columns and labels:
HT-29 cells = experiment: Protection against programmed necrosis of HT-29 cells (TNF α/Smac mimetic/Z-VAD-FMK, CCK8); format: cell-based; settings: Homo sapiens, TNF α/Smac mimetic/Z-VAD-FMK induced 24 h, CCK8, read-out: HT-29 (EC50)
RIPK1 = RIPK1 (Homo sapiens (Human), UniProt Q13546); experiment: In vitro kinase assay (Eurofins Kinase Profiler), IC50; format: biochemical; settings: 0.001-10 μM, read-out: RIPK 1 (IC50)
Sequence of RIPK1 (Q13546 whole entry): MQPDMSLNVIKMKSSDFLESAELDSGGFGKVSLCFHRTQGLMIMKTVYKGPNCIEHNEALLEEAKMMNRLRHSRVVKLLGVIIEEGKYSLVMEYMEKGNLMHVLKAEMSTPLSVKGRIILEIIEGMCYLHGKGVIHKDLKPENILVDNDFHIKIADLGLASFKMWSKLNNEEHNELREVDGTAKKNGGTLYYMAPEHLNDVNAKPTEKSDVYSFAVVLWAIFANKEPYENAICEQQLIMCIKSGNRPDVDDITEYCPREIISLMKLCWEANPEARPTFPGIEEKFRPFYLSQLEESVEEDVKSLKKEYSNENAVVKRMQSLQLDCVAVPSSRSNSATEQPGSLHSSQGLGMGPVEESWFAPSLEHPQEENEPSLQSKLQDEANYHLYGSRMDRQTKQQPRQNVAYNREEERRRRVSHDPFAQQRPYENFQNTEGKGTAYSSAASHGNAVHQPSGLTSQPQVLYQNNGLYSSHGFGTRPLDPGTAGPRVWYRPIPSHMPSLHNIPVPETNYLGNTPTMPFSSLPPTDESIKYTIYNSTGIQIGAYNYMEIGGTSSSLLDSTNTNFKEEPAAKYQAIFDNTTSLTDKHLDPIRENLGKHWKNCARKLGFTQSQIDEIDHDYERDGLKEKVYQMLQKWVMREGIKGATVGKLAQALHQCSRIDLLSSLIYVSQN
Description: In vitro kinase assays were conducted using Kinase Profiler services provided by Eurofins. The experimental method was as follows: the small molecule compound to be tested (0.001-10 μM), the protein kinase to be tested were incubated with a buffer containing substrate, 10 mM magnesium acetate, and [γ-^33P-ATP], the reaction was started by adding Mg\TPmix, after incubation for a period of time at room temperature, a 3% phosphate solution was added to the buffer to stop the reaction. Subsequently, 10 μL of the reaction mixture was quantitatively pipetted onto P30 filter paper, which was washed three times with 75 mM phosphate solution and then once with methanol. The P30 filter paper was air-dried and scintillation fluid was added for scintillation counting.

Compound: C[C@H](NC(=O)c1cn(C)c2ccc(-c3ccn4nc(N)nc4c3)cc12)c1cccc(F)c1 [Compound 141, (S)-5-(2-amino-[1,2,4]triazolo[1,5-a]pyridin-7-yl)-N-(1-(3-fluorophenyl)ethyl)-1-methyl-1H-indole-3-carboxamide]
- EC50 (HT-29 cells): 0.001 to 0.01 µM
- IC50 (RIPK1): 0.01 to 0.1 µM

Compound: C[C@H](NC(=O)c1cn(C)c2ccc(-c3ccn4nc(NC(=O)C5CCC(F)(F)CC5)nc4c3)cc12)c1cccc(F)c1 [Compound 147]
- EC50 (HT-29 cells): 0.001 to 0.01 µM
- IC50 (RIPK1): 0.01 to 0.1 µM

Compound: CCn1cc(C(=O)N[C@@H](C)c2cccc(F)c2)c2cc(-c3ccn4nc(NC(=O)C5CC5)nc4c3)ccc21 [Compound 149]
- EC50 (HT-29 cells): < 0.001 µM
- IC50 (RIPK1): 0.01 to 0.1 µM

Compound: CC(C)n1cc(C(=O)N[C@@H](C)c2cccc(F)c2)c2cc(-c3ccn4nc(NC(=O)C5CC5)nc4c3)ccc21 [Compound 150]
- EC50 (HT-29 cells): 0.001 to 0.01 µM
- IC50 (RIPK1): 0.01 to 0.1 µM

Compound: CCCn1cc(C(=O)N[C@@H](C)c2cccc(F)c2)c2cc(-c3ccn4nc(NC(=O)C5CC5)nc4c3)ccc21 [Compound 151]
- EC50 (HT-29 cells): < 0.001 µM
- IC50 (RIPK1): 0.001 to 0.01 µM

Compound: CCCCn1cc(C(=O)N[C@@H](C)c2cccc(F)c2)c2cc(-c3ccn4nc(NC(=O)C5CC5)nc4c3)ccc21 [Compound 152]
- EC50 (HT-29 cells): 0.01 to 0.1 µM
- IC50 (RIPK1): 0.01 to 0.1 µM

Compound: CC(C)Cn1cc(C(=O)N[C@@H](C)c2cccc(F)c2)c2cc(-c3ccn4nc(NC(=O)C(C)C)nc4c3)ccc21 [Compound 153]
- EC50 (HT-29 cells): 0.1 to 1 µM
- IC50 (RIPK1): 0.1 to 1 µM

Compound: COCCn1cc(C(=O)N[C@@H](C)c2cccc(F)c2)c2cc(-c3ccn4nc(NC(=O)C5CC5)nc4c3)ccc21 [Compound 154]
- EC50 (HT-29 cells): 0.001 to 0.01 µM
- IC50 (RIPK1): 0.01 to 0.1 µM

Compound: C[C@H](NC(=O)c1cn(C)c2ccc(-c3ccc4nc(NC(=O)C5CC5)nn4c3)cc12)c1cccc(F)c1 [Compound 155]
- EC50 (HT-29 cells): 0.001 to 0.01 µM
- IC50 (RIPK1): 0.01 to 0.1 µM

More lines, main results first:

- IC50 (RIPK1): 0.1 to 1 µM
Compound: CC(C)C(=O)Nc1nc2cc(-c3ccc4c(c3)c(C(=O)N[C@H](C)c3ccccn3)cn4C)ccn2n1 [Compound 136]
- EC50 (HT-29 cells): 0.01 to 0.1 µM

- IC50 (RIPK1): 0.01 to 0.1 µM
Compound: CC(C)C(=O)Nc1nc2cc(-c3ccc4c(c3)c(C(=O)N[C@@H](C)c3ccccn3)cn4C)ccn2n1 [Compound 137]
- EC50 (HT-29 cells): < 0.001 µM

- IC50 (RIPK1): ≥ 1 µM
Compound: CC(C)C(=O)Nc1nc2cc(-c3ccc4c(c3)c(C(=O)NC(C)c3cccnc3)cn4C)ccn2n1 (stereo not shown) [Compound 138]
- EC50 (HT-29 cells): ≥ 1 µM

- IC50 (RIPK1): 0.01 to 0.1 µM
Compound: CC(C)C(=O)Nc1nc2cc(-c3ccc4c(c3)c(C(=O)NC(C)c3ccncc3)cn4C)ccn2n1 (stereo not shown) [Compound 139]
- EC50 (HT-29 cells): 0.01 to 0.1 µM

- IC50 (RIPK1): 0.1 to 1 µM
Compound: CC(C)C(=O)Nc1nc2cc(-c3ccc4c(c3)c(C(=O)N[C@H]3CCCc5ccccc53)cn4C)ccn2n1 [Compound 140]
- EC50 (HT-29 cells): 0.01 to 0.1 µM

- IC50 (RIPK1): 0.01 to 0.1 µM
Compound: C[C@H](NC(=O)c1cn(C)c2ccc(-c3ccn4nc(NC(=O)C5CC5(F)F)nc4c3)cc12)c1cccc(F)c1 (stereo partly drawn) [Compound 142, 5-(2-(2,2-difluorocyclopropane-1-carboxamido)-[1,2,4]triazolo[1,5-a]pyridin-7-yl)-N-((S)-1-(3-fluorophenyl)ethyl)-1-methyl-1H-indole-3-Carboxamide]
- EC50 (HT-29 cells): < 0.001 µM

- IC50 (RIPK1): 0.01 to 0.1 µM
Compound: C[C@H](NC(=O)c1cn(C)c2ccc(-c3ccn4nc(NC(=O)[C@H]5C[C@H]5F)nc4c3)cc12)c1cccc(F)c1 [Compound 143]
- EC50 (HT-29 cells): < 0.001 µM

- IC50 (RIPK1): 0.01 to 0.1 µM
Compound: C[C@H](NC(=O)c1cn(C)c2ccc(-c3ccn4nc(NC(=O)[C@@H]5C[C@@H]5F)nc4c3)cc12)c1cccc(F)c1 [Compound 144]
- EC50 (HT-29 cells): < 0.001 µM

- IC50 (RIPK1): 0.001 to 0.01 µM
Compound: C[C@H](NC(=O)c1cn(C)c2ccc(-c3ccn4nc(NC(=O)C5(F)CC5)nc4c3)cc12)c1cccc(F)c1 [Compound 145]
- EC50 (HT-29 cells): < 0.001 µM

- IC50 (RIPK1): 0.001 to 0.01 µM
Compound: C[C@H](NC(=O)c1cn(C)c2ccc(-c3ccn4nc(NC(=O)C5CC(F)(F)C5)nc4c3)cc12)c1cccc(F)c1 [Compound 146]
- EC50 (HT-29 cells): < 0.001 µM

- IC50 (RIPK1): ≥ 1 µM
Compound: C[C@H](NC(=O)c1cn(C)c2ccc(-c3ccn4nc(NC(=O)C(C)(C)CCl)nc4c3)cc12)c1cccc(F)c1 [Compound 148]
- EC50 (HT-29 cells): ≥ 1 µM
